PubChem BioAssay (NCI)
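All cell lines were grown in 96-well plates and treated with compound for 48 hours. GI50: concentration for 50% inhibition of growth. TGI: concentration producing complete growth inhibition.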

Assays:
Assay in all cases: NCI tumour cell line growth inhibition, 48 h
786-0 renal = system: 786-0 renal
A498 renal = system: A498 renal
A549 NSCLC = system: A549 NSCLC
ACHN renal = system: ACHN renal
BT-549 breast = system: BT-549 breast
CAKI-1 renal = system: CAKI-1 renal
CCRF-CEM leukemia = system: CCRF-CEM leukemia
COLO 205 colon = system: COLO 205 colon
DU-145 prostate = system: DU-145 prostate
EKVX NSCLC = system: EKVX NSCLC
HCC-2998 colon = system: HCC-2998 colon
HCT-116 colon = system: HCT-116 colon
HCT-15 colon = system: HCT-15 colon
HL-60(TB) leukemia = system: HL-60(TB) leukemia
HOP-62 NSCLC = system: HOP-62 NSCLC
HOP-92 NSCLC = system: HOP-92 NSCLC
HS 578T breast = system: HS 578T breast
HT29 colon = system: HT29 colon
IGROV1 ovarian = system: IGROV1 ovarian
K-562 leukemia = system: K-562 leukemia
KM12 colon = system: KM12 colon
LOX IMVI melanoma = system: LOX IMVI melanoma
M14 melanoma = system: M14 melanoma
MALME-3M melanoma = system: MALME-3M melanoma
MCF7 breast = system: MCF7 breast
MDA-MB-435 = system: MDA-MB-435
MDA-MB-468 breast = system: MDA-MB-468 breast
MOLT-4 leukemia = system: MOLT-4 leukemia
NCI-H226 lung = system: NCI-H226 lung
NCI-H23 lung = system: NCI-H23 lung
NCI-H460 lung = system: NCI-H460 lung
NCI-H522 lung = system: NCI-H522 lung
NCI/ADR-RES ovarian = system: NCI/ADR-RES ovarian
OVCAR-3 ovarian = system: OVCAR-3 ovarian
OVCAR-4 ovarian = system: OVCAR-4 ovarian
OVCAR-5 ovarian = system: OVCAR-5 ovarian
OVCAR-8 ovarian = system: OVCAR-8 ovarian
PC-3 prostate = system: PC-3 prostate
RPMI-8226 leukemia = system: RPMI-8226 leukemia
RXF 393 renal = system: RXF 393 renal
SF-268 CNS = system: SF-268 CNS
SF-295 CNS = system: SF-295 CNS
SF-539 CNS = system: SF-539 CNS
SK-MEL-28 melanoma = system: SK-MEL-28 melanoma
SK-MEL-5 melanoma = system: SK-MEL-5 melanoma
SK-OV-3 ovarian = system: SK-OV-3 ovarian
SN12C renal = system: SN12C renal
SNB-19 CNS = system: SNB-19 CNS
SR leukemia = system: SR leukemia
SW-620 colon = system: SW-620 colon
T-47D breast = system: T-47D breast
TK-10 renal = system: TK-10 renal
U251 CNS = system: U251 CNS
UACC-257 melanoma = system: UACC-257 melanoma
UACC-62 melanoma = system: UACC-62 melanoma

c1n[nH]cc1-c1nc2ccc3[nH]ncc3c2c2c1CC1(CC2)COC1
GI50 (786-0 renal): 13.4 µM
TGI (786-0 renal): 32.7 µM
GI50 (A498 renal): 15 µM
TGI (A498 renal): 30.9 µM
GI50 (A549 NSCLC): 27.8 µM
TGI (A549 NSCLC): > 100 µM
GI50 (ACHN renal): 16.8 µM
TGI (ACHN renal): > 100 µM
GI50 (BT-549 breast): 4.09 µM
TGI (BT-549 breast): 16.6 µM
GI50 (CAKI-1 renal): 19.2 µM
TGI (CAKI-1 renal): 86.5 µM
GI50 (CCRF-CEM leukemia): 29.9 µM
TGI (CCRF-CEM leukemia): > 100 µM
GI50 (COLO 205 colon): 6.13 µM
TGI (COLO 205 colon): 21.2 µM
GI50 (DU-145 prostate): 26.2 µM
TGI (DU-145 prostate): 95.5 µM
GI50 (EKVX NSCLC): 22.4 µM
TGI (EKVX NSCLC): 83.6 µM
GI50 (HCC-2998 colon): 15.5 µM
TGI (HCC-2998 colon): 40.6 µM
GI50 (HCT-116 colon): 6.02 µM
TGI (HCT-116 colon): 37.7 µM
GI50 (HCT-15 colon): 23.2 µM
TGI (HCT-15 colon): > 100 µM
GI50 (HL-60(TB) leukemia): 13.6 µM
TGI (HL-60(TB) leukemia): 39.3 µM
GI50 (HOP-62 NSCLC): 18.2 µM
TGI (HOP-62 NSCLC): 47.3 µM
GI50 (HOP-92 NSCLC): 23.1 µM
TGI (HOP-92 NSCLC): 63.1 µM
GI50 (HS 578T breast): 8.53 µM
TGI (HS 578T breast): 39.3 µM
GI50 (HT29 colon): 26.3 µM
TGI (HT29 colon): > 100 µM
GI50 (IGROV1 ovarian): 19.3 µM
TGI (IGROV1 ovarian): 57.3 µM
GI50 (K-562 leukemia): 13.7 µM
TGI (K-562 leukemia): > 100 µM
GI50 (KM12 colon): 22.3 µM
TGI (KM12 colon): 51.8 µM
GI50 (LOX IMVI melanoma): 11.3 µM
TGI (LOX IMVI melanoma): 24.6 µM
GI50 (M14 melanoma): 12.9 µM
TGI (M14 melanoma): 28 µM
GI50 (MALME-3M melanoma): 15.7 µM
TGI (MALME-3M melanoma): 30.1 µM
GI50 (MCF7 breast): 20.4 µM
TGI (MCF7 breast): 69.5 µM
GI50 (MDA-MB-435): 14.4 µM
TGI (MDA-MB-435): 32.4 µM
GI50 (MDA-MB-468 breast): 3.53 µM
TGI (MDA-MB-468 breast): 13 µM
GI50 (MOLT-4 leukemia): 15.5 µM
TGI (MOLT-4 leukemia): 48.2 µM
GI50 (NCI-H226 lung): 16 µM
TGI (NCI-H226 lung): 37.1 µM
GI50 (NCI-H23 lung): 15.1 µM
TGI (NCI-H23 lung): 32.7 µM
GI50 (NCI-H460 lung): 17.1 µM
TGI (NCI-H460 lung): 35.9 µM
GI50 (NCI-H522 lung): 3.43 µM
TGI (NCI-H522 lung): 17.1 µM
GI50 (NCI/ADR-RES ovarian): > 100 µM
TGI (NCI/ADR-RES ovarian): > 100 µM
GI50 (OVCAR-3 ovarian): 13.7 µM
TGI (OVCAR-3 ovarian): 59.2 µM
GI50 (OVCAR-4 ovarian): 25 µM
TGI (OVCAR-4 ovarian): 70.4 µM
GI50 (OVCAR-5 ovarian): 25.6 µM
TGI (OVCAR-5 ovarian): 77.7 µM
GI50 (OVCAR-8 ovarian): 16.3 µM
TGI (OVCAR-8 ovarian): 35.5 µM
GI50 (PC-3 prostate): 26.5 µM
TGI (PC-3 prostate): > 100 µM
GI50 (RPMI-8226 leukemia): 21.3 µM
TGI (RPMI-8226 leukemia): 68 µM
GI50 (RXF 393 renal): 4.52 µM
TGI (RXF 393 renal): 17.6 µM
GI50 (SF-268 CNS): 16.2 µM
TGI (SF-268 CNS): 40.2 µM
GI50 (SF-295 CNS): 23.4 µM
TGI (SF-295 CNS): 58.4 µM
GI50 (SF-539 CNS): 12.2 µM
TGI (SF-539 CNS): 25.5 µM
GI50 (SK-MEL-28 melanoma): 12.9 µM
TGI (SK-MEL-28 melanoma): 27.7 µM
GI50 (SK-MEL-5 melanoma): 16.3 µM
TGI (SK-MEL-5 melanoma): 30.1 µM
GI50 (SK-OV-3 ovarian): 5.9 µM
TGI (SK-OV-3 ovarian): 34.3 µM
GI50 (SN12C renal): 13.9 µM
TGI (SN12C renal): 38 µM
GI50 (SNB-19 CNS): 17.3 µM
TGI (SNB-19 CNS): 68.1 µM
GI50 (SR leukemia): 3.36 µM
TGI (SR leukemia): 16.9 µM
GI50 (SW-620 colon): 4.98 µM
TGI (SW-620 colon): 52.6 µM
GI50 (T-47D breast): 12.7 µM
TGI (T-47D breast): 57.3 µM
GI50 (TK-10 renal): 15 µM
TGI (TK-10 renal): 67.6 µM
GI50 (U251 CNS): 17.7 µM
TGI (U251 CNS): > 100 µM
GI50 (UACC-257 melanoma): 17 µM
TGI (UACC-257 melanoma): 39 µM
GI50 (UACC-62 melanoma): 5.76 µM
TGI (UACC-62 melanoma): 18.7 µM
